Consider two compounds from patent US8314108B2, “5-(5-(2-(3-aminopropoxy)-6-methoxyphenyl)-1H-pyrazol-3-ylamino)pyrazine-2-carbonitrile, pharmaceutically acceptable salts thereof, or solvate of salts” (Eli Lilly and Company, priority 2008, dated 2012).

Structures can show the parent of a compound that is named as a salt.

The test system of one assay is Calu-6 lung xenograft. Nature of the assay: Single Agent Efficacy Dosing, Calu-6 lung xenograft. Format: in vivo, nude mice. To be noted: 15 mg/kg subcutaneously, BID×5 rest 2 days, ×3 cycles. On the procedure: The ability of Chk1 inhibitors to effect tumor killing can be determined in vivo using the Calu-6 lung xenograft efficacy model. Calu-6 lung cancer cells (ATCC) are cultured as described above. Cells are harvested and washed twice with phosphate buffered saline and 1×10^6 cells (Calu-6) in growth media (without serum) are mixed with equal volume of BD Matrigel™ matrix (BD Bioscience, Franklin, N.J.), then injected subcutaneously into the flank of nude mice (CD-1 nu/nu, from Charles River Labs, Wilmington, Mass.).

For assay [1], the system named is Thirty solid tumor cell lines. Nature of the assay: Monolayer Proliferation and Cytotoxicity Assay (modified propidium iodide assay, Oncotest). The format is cell-based. To be noted: 96 h; majority of thirty solid tumor cell lines, 4 days of treatment; read-out: EC50 (growth inhibition of tumor cell lines). An excerpt: One measure of potency of a Chk1 inhibitor is its ability to inhibit the proliferation of cancer cells in culture due to uncontrolled replication origin activation. (Conti et al. Cell Cycle 6: 2760-2767, 2007) Determination of Chk1 inhibitor antiproliferative activity in cell lines derived from a broad range of tumor types is indicative of which tumor types may be clinically responsive to chemotherapy with Chk1 inhibitors. The following described cellular proliferation assay is run at Oncotest, GmbH in Germany. Thirty solid tumor cell lines are derived from 13 different tumor histotypes, each represented by 1 to 6 different cell lines (Oncotest, GmbH). […] Briefly, adherent cells are harvested from exponential phase cultures by trypsinization, counted and plated in 96 well flat-bottomed microtiter plates at a cell density depending on the cell line (4.000-20.000 cells/well). […] Finally, PI fluorescence is measured using the Cytofluor 4000 microplate reader (excitation λ=530 nm, emission λ=620 nm) to determine the total viable cell number. Growth inhibition is expressed as Test/Control×100 (% T/C) values. Based on the T/C values, relative IC50 values are determined using non-linear regression (log [conc. of inhibitor] versus response (% T/C)).

Assay [2] relates to Calu-6 lung tumor xenograft. The assay is described as follows: Human Tumor Xenograft Model, Calu-6 lung. Format: in vivo, nude mice. To be noted: Calu-6 xenograft. As for the experimental part: (§1) The ability of Chk1 inhibitors to effect tumor killing can be determined in vivo using the Calu-6 lung and HT-29 colon tumor xenograft efficacy models. Calu-6 lung cancer cells (ATCC) are cultured in growth media (MEM w/Earle's salts (Invitrogen) with L-glutamine (Gibco™) supplemented with 10% (v/v) heat inactivated FBS (Gibco™), 1×MEM non-essential amino acids (Gibco™), 1× sodium pyruvate (Gibco™)) and HT-29 colon cancer cells (ATCC) are cultured in growth media, (McCoy's 5A medium (Gibco™) supplemented with 10% FBS (Gibco™)) and expanded. Cells are harvested and washed twice with phosphate buffered saline and 5×10^6 cells (HT-29) or 1×10^6 cells (Calu-6) in growth media (without serum) are mixed with equal volume of BD Matrigel™ matrix (BD Bioscience, Franklin, N.J.), then injected subcutaneously into the flank of nude mice (CD-1 nu/nu, from Charles River Labs, Wilmington, Mass.). At about day 16 after implant (150-200 mm^3), gemcitabine is formulated fresh in saline daily and administered to animals by intraperitoneal route at 60 mg/kg dose. […] Tumor response is determined by tumor volume measurement performed twice a week during the course of treatment. Tumor growth inhibition (TGI) is calculated as the percent reduction in mean tumor size of a compound treated group from the mean tumor size of the vehicle-treated control group.
For orientation: In xenograft studies the graft and the host belong to different species.

Assay [3] has as its system HT-29 colon tumor xenograft. The assay is described as follows: Human Tumor Xenograft Model, HT-29 colon. Format: in vivo, nude mice. To be noted: HT-29 xenograft. On the procedure:
as §1

The test system of the next assay is HT-29 cells. The assay is described as follows: ECtfs (Two-Fold Sensitization) Assay, 3H-thymidine incorporation. The format is cell-based. For orientation: Uptake of a labelled nucleoside into DNA is a usual measure of proliferation.
[4] abbreviates: stated jointly for both HT-29 and Calu-6 models.

Method for HT-29 cells: The capacity for continued tumor cell proliferation after DNA damage can be analyzed by determining the ability of cells to replicate their DNA. […] Following a recovery period, cells are assayed for the ability to incorporate radioactive thymidine into DNA during S phase. The ECtfs parameter is a measure of the concentration of a Chk1 inhibitor necessary to reduce by half the GI90 concentration of gemcitabine, measured in this assay in the absence of Chk1 inhibition. […] These cells are plated at 1.3×10^3 per well on Corning Costar 96-well tissue culture plates. After plating the cells, the tissue culture plates are held at room temperature for 45 minutes, before returning to 37° C. Plates are incubated for 24 hours prior to gemcitabine addition. Before gemcitabine addition, medium is removed from all wells and replaced with 150 μL per well of fresh RPMI medium. Gemcitabine stocks at 10 mM are prepared in phosphate-buffered saline. Gemcitabine dilutions were prepared at 4× concentrations in RPMI medium and added to wells at 50 μL per well. The highest final concentration of gemcitabine used is 80 μM and dilutions proceed by four-fold steps. Two hours later, gemcitabine-containing medium is removed from the wells and replaced with 150 μL per well of fresh RPMI medium. […] The volume of addition is 50 μL. Compound dilutions proceed by two-fold steps, starting at 5000 nM. […] 20 μL of this solution is added to each well, yielding 1 μCi/well of ^3H-thymidine. Cells are labeled for twenty-two hours. The medium containing ^3H-thymidine is thoroughly removed from the wells. The plates are then frozen at −20° C., for several hours. To harvest the DNA containing incorporated ^3H-thymidine, plates are thawed for several minutes, and then 120 μL per well of 0.1 N NaOH is added to each well. Each plate is then incubated at 37° C., with slow mixing on a rotator, for 10 minutes. […] The wells of the tissue culture plate on which cells had been labeled are washed with water 5×. The Unifilter plate membranes are washed with an additional 4.5 mL per well (3×1.0 mL and finally a 1.5 mL wash). The Unifilter plates are then dried at 37° C. for at least 6 hours. The bottom of each filter plate was sealed with a Backseal adhesive sheet (PerkinElmer), and the 50 μL/well of MicroScint-20 (Perkin Elmer) is added. Each plate is then sealed with a Topseal clear adhesive sheet (PerkinElmer). Plates are counted on a Topcount scintillation counter (PerkinElmer), at 1 minute per well. ^3H-thymidine counts per minute (cpm) are exported into Prism (GraphPad) for analysis and plotting. […] For plotting the data in Prism, the gemcitabine concentrations are transformed to log values, and dose-response curves are fit by non-linear regression. Neither top nor bottom fits are constrained.

For the compound `COc1cccc(OCCCN)c1-c1cc(Nc2cnc(C#N)cn2)n[nH]1` [Example 2, 5-(5-(2-(3-Aminopropoxy)-6-methoxyphenyl)-1H-pyrazol-3-ylamino)pyrazine-2-carbonitrile dihydrogen chloride salt], the “growth inhibition compared with the gemcitabine plus compound combination schedule” value in the assay on Calu-6 lung xenograft is on record as “superior growth inhibition”. Besides, in the assay with Calu-6 lung xenograft, the tumor regression entry was “Complete tumor regression is rapid and durable”. In assay [1], the EC50 was below 0.02 µM. For the same compound, the anti-tumor activity entry in assay [2] (dosed alone and in combination with gemcitabine 60 mg/kg, intravenous, Q3Dx4) is reported as “excellent dose dependent anti-tumor activity”; in assay [3] (dosed alone and in combination with gemcitabine 60 mg/kg, intraperitoneal, Q3Dx4) it was “excellent dose dependent anti-tumor activity”. Besides, the “increase in tumor growth inhibition over gemcitabine alone” value in assay [2] (setting [4]) and in assay [3] (setting [4]) was “six-fold” in each case. In the assay on HT-29 cells (3 nM of the compound of Example 2, HT29 colon carcinoma cells), the “decrease of the EC50 of gemcitabine” value is listed as 7 fold. The ECtfs value in the assay on HT-29 cells (concentration of Chk1 inhibitor necessary to reduce by half the GI90 concentration of gemcitabine, HT-29 cells) is reported as 0.3 nM.

On to `Nc1ccn([C@@H]2O[C@H](CO)[C@@H](O)C2(F)F)c(=O)n1` [gemcitabine, reference compound], for which the EC50 with HT-29 cells (Homo sapiens, HT-29, gemcitabine alone, HT29 colon carcinoma cells) was determined as 0.037 µM. Moreover, in the assay with HT-29 cells (gemcitabine alone, HT29 cells), the “percentage of proliferation inhibition” value was 52%.

One may read the EC50 as the concentration needed to bring the measured effect to its halfway point.
